Data from US6541507B1, “Indolecarboxylic compounds for inducing/stimulating hair growth and/or retarding hair loss” (Societe L'Oreal S.A., priority 1999, dated 2003).

Legend:
Type II 5α-reductase = target: T1, Type II 5α-reductase (Homo sapiens, UniProt P31213); experiment: Inhibition of type II 5α-reductase (14C-testosterone to dihydrotestosterone, transfected COS7 cell lysate); format: biochemical
T1 construct: made in house; host or cells: COS7 cells (ATCC, CRL 1651), transient transfection with pSG5; 100,000×g pellet of the lysate
T1 sequence (P31213 1-254): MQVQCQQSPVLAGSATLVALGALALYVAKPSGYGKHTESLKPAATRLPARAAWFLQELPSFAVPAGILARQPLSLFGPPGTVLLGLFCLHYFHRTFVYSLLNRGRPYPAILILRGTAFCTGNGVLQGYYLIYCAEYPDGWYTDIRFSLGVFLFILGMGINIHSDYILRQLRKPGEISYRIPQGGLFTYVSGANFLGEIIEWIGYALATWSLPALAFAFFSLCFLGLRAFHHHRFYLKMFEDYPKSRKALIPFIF
Description: (§1) The coding sequences (complementary deoxyribonucleic acids: cDNAs) of 5α-reductase I and of 5α-reductase II were cloned into the eukaryotic expression vector pSG5 (Stratagene). The enzymes were overexpressed after transient transfection of COS7 cells (ATCC, CRL 1651). The 5α-reductase I and 5α-reductase II cDNAs were obtained by reverse transcription and polymerase chain reaction (PCR) using specific primers from human testicle total RNA (marketed by Clontech).
The primers (SEQ ID NOS.: 3 and 4) used to obtain the 5α-reductase II cDNA were:
+strand: 5′GCGATGCAGGTTCAGTG 3′,
−strand: 5′ATTGTGGGAGCTCTGCT 3′.
(§2) The 5α-reductase I cDNA obtained was inserted, by standard genetic engineering techniques, into the BamHI site of pSG5 and the 5α-reductase II cDNA obtained was inserted into the EcoRI site (see Maniatis et al., Molecular Cloning, Cold Spring Harbor, 1989). […]
(§3) The reaction mixtures were then deposited directly on a silica plate (HPTLC, 60F 254, Merck) and subjected to chromatography (solvent=10% diethyl ether, 90% dichloromethane). They were then analyzed by digital autoradiography (Digital Autoradiography, Berthold).
(§4) The inhibition of the activity of the isoenzymes was measured by calculating the percentage of dihydrotestosterone formed from ^14C-testosterone relative to an untreated control.

Type I 5α-reductase = target: T2, Type I 5α-reductase (Homo sapiens, UniProt P18405); experiment: Inhibition of type I 5α-reductase (14C-testosterone to dihydrotestosterone, transfected COS7 cell lysate); format: biochemical
T2 construct: made in house; host or cells: COS7 cells (ATCC, CRL 1651), transient transfection with pSG5; 100,000×g pellet of the lysate
T2 sequence (P18405 1-259): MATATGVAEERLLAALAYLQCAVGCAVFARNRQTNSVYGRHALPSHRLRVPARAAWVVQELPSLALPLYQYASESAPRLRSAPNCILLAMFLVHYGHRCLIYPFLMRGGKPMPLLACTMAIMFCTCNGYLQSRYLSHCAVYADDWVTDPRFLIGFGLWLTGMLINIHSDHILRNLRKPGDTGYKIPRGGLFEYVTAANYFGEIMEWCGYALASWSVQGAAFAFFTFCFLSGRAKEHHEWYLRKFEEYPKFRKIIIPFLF
Description: as §1
The primers (SEQ ID NOS.: 1 and 2) used to obtain the 5α-reductase I cDNA were:
+strand: 5′[…] 3′,
−strand: 5′[…] 3′.
as §2, §3, §4

IC50 (Type II 5α-reductase; 40 mM pH 5.5 citrate buffer, 1 nM 14C-testosterone, 5 mM NADPH, 50 minutes at 37° C.): > 50 µM
inhibitory effect on the 5α-reductases (type II) (Type II 5α-reductase; statement in words): no inhibitory effect
IC50 (Type I 5α-reductase; 40 mM pH 6.5 phosphate buffer, 1 nM 14C-testosterone, 5 mM NADPH, 50 minutes at 37° C.): 50 µM
inhibitory effect on the 5α-reductases (type I) (Type I 5α-reductase; statement in words): no inhibitory effect
SMILES: COc1cc(OC)c2cc(C(=O)O)[nH]c2c1 [4,6-dimethoxyindole-2-carboxylic acid]
